Measured values as given in patent publication US9737075B2, “Synergistic benzoxaborole-containing anti-fungicidal composition” (The Penn State Research Foundation, priority 2015, dated 2017).
≈ marks a conversion by molar mass, not a printed value. Where two headings read alike, the source gives them in different places.

Experiments:
Assay type in all cases: cell-based
Botrytis cinerea 10-1728 = assay: Broth microdilution MIC of individual antifungals; details: 101728; Botrytis cinerea 10-1728; individual antifungal, 25% PDB, about 25° C., 72 hours; range over N independent triplicate studies; read-out: Independent MIC
Aspergillus flavus = assay: Broth microdilution MIC of individual antifungals; details: read-out: Independent MIC
Aspergillus niger = assay: Broth microdilution MIC of individual antifungals; details: read-out: Independent MIC
[1] = system: Mycosphaerella zeae-maydis; assay: Broth microdilution MIC of individual antifungals; details: Didymella maydis, individual antifungal, 25% PDB, about 25° C., 72 hours, range over N independent triplicate studies
Aureobasidium pullulans = assay: Broth microdilution MIC of individual antifungals; details: individual antifungal, 25% PDB, about 25° C., 72 hours, range over N independent triplicate studies, read-out: Independent MIC
[2] = system: Fusarium oxysporum f. sp. lycopersici; assay: Broth microdilution MIC of individual antifungals; details: individual antifungal, 25% PDB, about 25° C., 72 hours, range over N independent triplicate studies
Mucor sp. = assay: Broth microdilution MIC of individual antifungals; details: individual antifungal, 25% PDB, about 25° C., 72 hours, range over N independent triplicate studies
Rhizopus sp. = assay: Broth microdilution MIC of individual antifungals; details: read-out: Independent MIC
Fusarium oxysporum ST33 = assay: Broth microdilution MIC of individual antifungals; details: individual antifungal, 25% PDB, about 25° C., 72 hours, range over N independent triplicate studies
Fusarium verticillioides = assay: Broth microdilution MIC of individual antifungals; details: individual antifungal, 25% PDB, about 25° C., 72 hours, range over N independent triplicate studies, read-out: Independent MIC
[3] = system: Fusarium solani f. sp. pisi (MP VI); assay: Broth microdilution MIC of individual antifungals; details: read-out: Independent MIC
Botrytis cinerea B17 = assay: Broth microdilution MIC of individual antifungals; details: Botrytis cinerea B17; individual antifungal, 25% PDB, about 25° C., 72 hours; range over N independent triplicate studies; read-out: Independent MIC
Alternaria solani = assay: Broth microdilution MIC of individual antifungals; details: individual antifungal, 25% PDB, about 25° C., 72 hours, range over N independent triplicate studies, read-out: Independent MIC
Stachybotrys chartarum = assay: Broth microdilution MIC of individual antifungals; details: individual antifungal, 25% PDB, about 25° C., 72 hours, range over N independent triplicate studies, read-out: Independent MIC
Aspergillus fumigatus = assay: Broth microdilution MIC of individual antifungals; details: individual antifungal, 25% PDB, about 25° C., 72 hours, range over N independent triplicate studies, read-out: Independent MIC
Sclerotinia homoeocarpa = assay: Broth microdilution MIC of individual antifungals; details: Clarireedia homoeocarpa; Sclerotinia homoeocarpa; individual antifungal, 25% PDB, about 25° C., 72 hours; range over N independent triplicate studies; read-out: Independent MIC
[4] = system: two dozen different fungal organisms; assay: Broth microdilution MIC, summary over the organisms examined
Description: All antifungal susceptibility assays were conducted in triplicate and N independent times. Thus, the inhibition studies were conducted a total of 3·N times. […] Thus, each synergy assay (combination of two antifungals) was conducted in conjunction with independent MIC determination. FICI values were calculated by comparing the inhibition activity of the combination (benzoxaborole+another antifungal) against the efficacy of the individual antifungal within the same experiment (using the same experimental conditions).
The studies were performed in flat bottom, 96-well microtiter plates (Greiner Bio-One).
Plates sealed with clear polyester film (VWR) were incubated at a temperature of about 25° C. The progress of fungal growth was monitored at 48 hours, 72 hours, 7 days, and 15 days. […] In order to establish appropriate comparison between the different fungi, the FICI (thus, the MICs used) determination was done at 72 hours for all cases discussed herein.
The MICs of the individual antifungals (MICBoron and MICA) and in combination (MICBA) were determined after 72 hours of incubation. […] MICA is defined as the MIC value of every other individual non-benzoxaborole-based antifungal. MICBA is defined as the MIC value when the benzoxaborole antifungal is combined with another non-benzoxaborole antifungal. […] The combination studies were performed in triplicate in flat bottom 96-well microtiter plates with a final media volume of 0.2 mL/well.

Penicillium chrysogenum = assay: Broth microdilution MIC of individual antifungals; details: read-out: Independent MIC
Phytophthora pini = assay: Broth microdilution MIC of individual antifungals; details: individual antifungal, 25% PDB, about 25° C., 72 hours, range over N independent triplicate studies
Rhizoctonia solani = assay: Broth microdilution MIC of individual antifungals; details: read-out: Independent MIC
Fusarium graminearum = assay: microbe, parasite or virus in culture; details: Fusarium graminearum, 72 h, read-out: Independent MIC
Magnaporthe grisea = assay: microbe, parasite or virus in culture; details: Pyricularia oryzae, 72 h, read-out: Independent MIC
Pythium aphanodermatum = assay: Broth microdilution MIC of individual antifungals; details: individual antifungal, 25% PDB, about 25° C., 72 hours, range over N independent triplicate studies
[5] = system: Colletotrichum orbiculare; assay: Broth microdilution MIC of individual antifungals; details: read-out: Independent MIC
Candida albicans = assay: Broth microdilution MIC of individual antifungals; details: read-out: Independent MIC
[6] = individual antifungal, 25% PDB, about 25° C., 72 hours, range over N independent triplicate studies
[7] = Rhizopus, 72 h, Rhizopus sp., individual antifungal, 25% PDB, about 25° C., 72 hours, range over N independent triplicate studies
[8] = Fusarium solani f. sp. pisi (MP VI), individual antifungal, 25% PDB, about 25° C., 72 hours, range over N independent triplicate studies
[9] = by itself, against the organisms examined (Table 1), regularly
[10] = against many species tested here

Compound | MIC (Botrytis cinerea 10-1728) | MIC (Aspergillus flavus; [6]) | MIC (Aspergillus niger; [6]) | MIC [1] | MIC (Aureobasidium pullulans) | MIC [2] | MIC (Mucor sp.) | MIC (Rhizopus sp.; [7]) | MIC (Fusarium oxysporum ST33) | MIC (Fusarium verticillioides) | MIC [3, 8] | MIC (Botrytis cinerea B17) | MIC (Alternaria solani) | MIC (Stachybotrys chartarum) | MIC (Aspergillus fumigatus) | MIC (Sclerotinia homoeocarpa) | MIC (Penicillium chrysogenum; [6]) | MIC (Phytophthora pini) | MIC (Fusarium graminearum) | MIC [5, 6] | also measured
Cc1ccc2c(c1)COB2O [B1, 5-Methyl-1,3-dihydro-2,1-benzoxaborol-1-ol] | 2 µg/mL | 2 µg/mL | 2 µg/mL | 16 µg/mL | 1 µg/mL | 1 µg/mL | 1 µg/mL | 16 µg/mL | 1 µg/mL | 0.5 µg/mL | 2 µg/mL | 2 µg/mL | 1 µg/mL | 0.5 µg/mL | 0.25 µg/mL | 1 µg/mL | – | – | – | – | MIC [4, 9]: ≤ 4 µg/mL
OB1OCc2cc(Cl)ccc21 [B18, 5-chloro-1,3-dihydro-2,1-benzoxaborol-1-ol] | 0.5 to 2 µg/mL | 0.5 to 1 µg/mL | 0.5 to 2 µg/mL | 4 to 8 µg/mL | 0.125 µg/mL | 0.25 µg/mL | 0.5 to 1 µg/mL | 0.5 to 2 µg/mL | 0.5 µg/mL | 0.25 to 0.5 µg/mL | 0.5 µg/mL | 0.5 µg/mL | 0.5 µg/mL | 0.25 to 1 µg/mL | 0.125 to 0.25 µg/mL | 1 to 4 µg/mL | 0.19 to 0.38 µg/mL | 0.125 µg/mL | 1 µg/mL (≈ 5.94 µM) | 0.78 µg/mL | MIC (Rhizoctonia solani; [6]): 1.56 to 8 µg/mL; MIC (Magnaporthe grisea): 0.39 to 1.56 µg/mL (≈ 2.32 to 9.26 µM); MIC (Pythium aphanodermatum): 0.25 to 2 µg/mL; MIC [4, 9]: ≤ 4 µg/mL; MIC (Candida albicans; [6]): 0.5 to 1 µg/mL
OB1OCc2cc(F)ccc21 [B90, 5-Fluoro-1,3-dihydro-2,1-benzoxaborol-1-ol] | 0.25 to 0.5 µg/mL | 0.5 to 1 µg/mL | 0.25 to 1 µg/mL | 1 to 8 µg/mL | 0.25 to 0.5 µg/mL | 0.25 to 0.5 µg/mL | 0.25 µg/mL | 1 to 2 µg/mL | 0.25 to 0.5 µg/mL | 0.25 to 0.4 µg/mL | 0.5 to 1 µg/mL | 0.5 to 2 µg/mL | 0.25 to 0.5 µg/mL | 0.25 to 0.5 µg/mL | 0.063 to 0.125 µg/mL | 0.25 to 1 µg/mL | 0.19 to 0.39 µg/mL | – | 0.5 to 2 µg/mL (≈ 3.29 to 13.2 µM) | 0.78 to 1.56 µg/mL | MIC (Rhizoctonia solani; [6]): 1.56 to 8 µg/mL; MIC (Magnaporthe grisea): 1.25 to 2 µg/mL (≈ 8.23 to 13.2 µM); MIC (Pythium aphanodermatum): 2 to 4 µg/mL; MIC [4, 9]: ≤ 4 µg/mL; MIC (Candida albicans; [6]): 0.5 µg/mL
O=C1C2CC=CCC2C(=O)N1SC(Cl)(Cl)Cl (stereo not drawn) [Captan, captan] | 0.94 to 1.56 µg/mL | 12.5 to 25 µg/mL | 12.5 to 16 µg/mL | 1 to 1.56 µg/mL | 0.375 to 0.78 µg/mL | 1.56 to 4 µg/mL | 3.12 to 12.5 µg/mL | 12.5 to 40 µg/mL | 1 to 2 µg/mL | 1 to 2 µg/mL | 3 to 3.12 µg/mL | 1.88 to 4 µg/mL | 1.5 to 3.12 µg/mL | 0.39 to 0.5 µg/mL | 6.25 to 12.5 µg/mL | 2 to 4 µg/mL | 0.75 to 0.78 µg/mL | 0.39 µg/mL | 0.78 to 0.8 µg/mL (≈ 2.59 to 2.66 µM) | 0.39 to 0.78 µg/mL | MIC (Magnaporthe grisea): 0.19 to 0.2 µg/mL (≈ 0.632 to 0.665 µM); MIC (Pythium aphanodermatum): 28 µg/mL; MIC [4, 10]: > 25 µg/mL
N#Cc1c(Cl)c(Cl)c(Cl)c(C#N)c1Cl [Chlorothalonil, chlorothalonil] | 0.2 to 0.5 µg/mL | 0.1 to 0.2 µg/mL | 0.39 to 1 µg/mL | 0.78 to 1 µg/mL | – | – | 0.78 to 1 µg/mL | 0.78 µg/mL | – | 0.75 to 0.78 µg/mL | 12.5 to 25 µg/mL | – | 1 to 1.56 µg/mL | – | 0.1 to 0.2 µg/mL | 0.39 to 0.78 µg/mL | 0.1 µg/mL | – | 0.78 to 1.56 µg/mL (≈ 2.93 to 5.87 µM) | 0.39 µg/mL | MIC (Rhizoctonia solani; [6]): 1.56 µg/mL; MIC [4, 10]: > 25 µg/mL; MIC (Candida albicans; [6]): 0.78 µg/mL
CNC(=S)S [Metam Sodium, Metam sodium] | 50 to 200 µg/mL | – | – | 6 to 6.25 µg/mL | – | – | 50 µg/mL | – | – | 25 µg/mL | – | – | 12.5 to 15 µg/mL | – | 25 µg/mL | 6.25 µg/mL | – | 50 µg/mL | 12.5 to 25 µg/mL | – | MIC (Aspergillus flavus; 72 h): 25 µg/mL; MIC (Aspergillus niger; 72 h): 50 µg/mL; MIC (Penicillium chrysogenum; 72 h): 50 µg/mL; MIC (Rhizoctonia solani; [6]): 25 to 50 µg/mL; MIC (Rhizopus sp.; Rhizopus, 72 h): 100 µg/mL; MIC ([3]; Fusarium solani, 72 h): 25 to 50 µg/mL; MIC ([5]; 72 h): 12.5 to 25 µg/mL; MIC [4, 10]: > 25 µg/mL; MIC (Candida albicans; 72 h): 25 µg/mL
S=C(S)NCCNC(=S)S [Zineb, zineb] | 3 to 3.12 µg/mL | – | – | 1.56 to 2 µg/mL | – | – | – | – | – | 3.12 to 6.25 µg/mL | 6.25 to 12.5 µg/mL | – | 6.25 to 12.5 µg/mL | – | 0.78 to 1.56 µg/mL | 6.25 to 12.5 µg/mL | – | 25 µg/mL | 1.56 µg/mL (≈ 7.34 µM) | 3.13 to 6.25 µg/mL | MIC (Aspergillus flavus; 72 h): 1 to 1.56 µg/mL; MIC (Penicillium chrysogenum; 72 h): 1.56 to 6.25 µg/mL; MIC (Rhizoctonia solani; 72 h): 3.12 µg/mL; MIC (Magnaporthe grisea): 0.78 to 1.56 µg/mL (≈ 3.67 to 7.34 µM); MIC (Rhizopus sp.; Rhizopus sp., individual antifungal, 25% PDB, about 25° C., 72 hours, range over N independent triplicate studies): 12.5 µg/mL; MIC [4, 10]: > 25 µg/mL; MIC (Candida albicans; 72 h): 3.12 µg/mL
